Results published in ChEMBL document CHEMBL1201862, “PubChem BioAssay data set” (2004).
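Where inhibition never reached the appropriate level, the endpoint shown equals the highest concentration tested. Otherwise, values were interpolated linearly from a five-concentration, 48-hour dose response in 96-well plates. Here, GI50 denotes the concentration required for 50% inhibition of growth.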 Calls of active or inactive are those of the source. No stated cut-off is given here; in the data, active = GI50 up to about 1.1 µM and inactive = higher.

Key:
Experiment in all cases: growth of human tumour cells (NCI), 48 h
786-0 = system: 786-0
A498 = system: A498
A549 = system: A549
ACHN = system: ACHN
BT-549 = system: BT-549
CAKI-1 = system: CAKI-1
CCRF-CEM = system: CCRF-CEM
COLO 205 = system: COLO 205
DU-145 = system: DU-145
EKVX = system: EKVX
HCC 2998 = system: HCC 2998
HCT-116 = system: HCT-116
HCT-15 = system: HCT-15
HL-60 = system: HL-60
HOP-62 = system: HOP-62
HOP-92 = system: HOP-92
HT-29 = system: HT-29
Hs-578T = system: Hs-578T
IGROV-1 = system: IGROV-1
KM12 = system: KM12
LOX IMVI = system: LOX IMVI
M14 = system: M14
MCF7 = system: MCF7
MDA-MB-231 = system: MDA-MB-231
MDA-MB-435 = system: MDA-MB-435
MDA-N = system: MDA-N
MOLT-4 = system: MOLT-4
Malme-3M = system: Malme-3M
NCI-H226 = system: NCI-H226
NCI-H23 = system: NCI-H23
NCI-H460 = system: NCI-H460
NCI-H522 = system: NCI-H522
NCI/ADR-RES = system: NCI/ADR-RES
OVCAR-3 = system: OVCAR-3
OVCAR-4 = system: OVCAR-4
OVCAR-5 = system: OVCAR-5
OVCAR-8 = system: OVCAR-8
PC-3 = system: PC-3
RPMI-8226 = system: RPMI-8226
SF-268 = system: SF-268
SF-295 = system: SF-295
SF-539 = system: SF-539
SK-MEL-28 = system: SK-MEL-28
SK-MEL-2 = system: SK-MEL-2
SK-MEL-5 = system: SK-MEL-5
SK-OV-3 = system: SK-OV-3
SN12C = system: SN12C
SNB-19 = system: SNB-19
SNB-75 = system: SNB-75
SR = system: SR
SW-620 = system: SW-620
T47D = system: T47D
TK-10 = system: TK-10
U-251 = system: U-251
UACC-257 = system: UACC-257
UACC-62 = system: UACC-62
K562 = system: K562
RXF 393 = system: RXF 393
UO-31 = system: UO-31

Measured: GI50

OCCSCC(O)Cn1cnc2c(O)nc(Nc3ccccc3)nc21 (centres undefined)
inactive: 786-0 > 100 µM | A498 > 100 µM | A549 > 100 µM | ACHN > 100 µM | BT-549 > 100 µM | CAKI-1 > 100 µM | CCRF-CEM > 100 µM | COLO 205 > 100 µM | DU-145 > 100 µM | EKVX > 100 µM | HCC 2998 > 100 µM | HCT-116 > 100 µM | HL-60 > 100 µM | HOP-62 > 100 µM | HOP-92 > 100 µM | HT-29 > 100 µM | Hs-578T > 100 µM | IGROV-1 > 100 µM | KM12 > 100 µM | LOX IMVI > 100 µM | M14 > 100 µM | MCF7 > 100 µM | MDA-MB-231 > 100 µM | MDA-MB-435 > 100 µM | MDA-N > 100 µM | MOLT-4 > 100 µM | Malme-3M > 100 µM | NCI-H226 > 100 µM | NCI-H23 > 100 µM | NCI-H460 > 100 µM | NCI-H522 > 100 µM | NCI/ADR-RES > 100 µM | OVCAR-3 > 100 µM | OVCAR-4 > 100 µM | OVCAR-5 > 100 µM | OVCAR-8 > 100 µM | PC-3 > 100 µM | RPMI-8226 > 100 µM | SF-268 > 100 µM | SF-295 > 100 µM | SF-539 > 100 µM | SK-MEL-28 > 100 µM | SK-MEL-2 > 100 µM | SK-MEL-5 > 100 µM | SK-OV-3 > 100 µM | SN12C > 100 µM | SNB-19 > 100 µM | SNB-75 > 100 µM | SR > 100 µM | SW-620 > 100 µM | T47D > 100 µM | TK-10 > 100 µM | U-251 > 100 µM | UACC-257 > 100 µM | UACC-62 > 100 µM
> 100 µM: HCT-15

O=c1c2ccccc2[se]n1-c1cccnc1
inactive: 786-0 31.4 µM | A498 24.7 µM | A549 40.6 µM | ACHN 28.1 µM | BT-549 31.3 µM | CAKI-1 42.3 µM | COLO 205 20 µM | DU-145 18.2 µM | EKVX 33.4 µM | HCC 2998 11.4 µM | HCT-116 30.5 µM | HL-60 30.1 µM | HOP-62 24.9 µM | HOP-92 15.9 µM | HT-29 43.8 µM | Hs-578T 20.1 µM | IGROV-1 19.8 µM | K562 40.6 µM | KM12 79.3 µM | LOX IMVI 24.5 µM | M14 30.7 µM | MCF7 29.4 µM | MDA-MB-231 25.1 µM | MDA-MB-435 22.2 µM | MDA-N 22.6 µM | MOLT-4 31.3 µM | Malme-3M 21.7 µM | NCI-H226 28.4 µM | NCI-H23 21.4 µM | NCI-H460 53.6 µM | NCI-H522 20.7 µM | NCI/ADR-RES 33.5 µM | OVCAR-3 29.1 µM | OVCAR-4 36.2 µM | OVCAR-5 46.2 µM | OVCAR-8 24.9 µM | PC-3 22.3 µM | RPMI-8226 34.5 µM | RXF 393 29.2 µM | SF-268 27 µM | SF-295 31.9 µM | SF-539 21.9 µM | SK-MEL-28 24.7 µM | SK-MEL-2 19.3 µM | SK-MEL-5 12.9 µM | SK-OV-3 > 100 µM | SN12C 29.6 µM | SNB-19 49.4 µM | SNB-75 18.1 µM | SR 34.7 µM | SW-620 29 µM | T47D 21.7 µM | TK-10 24.2 µM | U-251 26.7 µM | UACC-257 23.4 µM | UACC-62 13 µM | UO-31 35.2 µM
23.6 µM: HCT-15
